# Reference: patent US20110065202A1, “Method for Examination of Alzheimer's Disease” (EISAI R&D MANAGEMENT CO., LTD., priority 2008, published 2011)
# Several values for one entry are separate records, joined by “and”; a condition that tells them apart may be missing. Identical values can stand only once.
# Experiment: LC/MS measurement of lidocaine and its metabolite MEGX in cerebrospinal fluid of lidocaine-administered subjects
# Type: in vivo, human
# Conditions: for Lidocaine peak ratio to lysine / Lidocaine peak ratio to lysine, average: cerebrospinal fluid; for Lidocaine peak ratio to lysine: individual samples, lidocaine hydrochloride standard dose 200 mg at the puncture site, LC/MS; for concentration detected in cerebrospinal fluid, AD patients versus healthy subjects: cerebrospinal fluids, result in words
# Description: Cerebrospinal fluids of 17 Alzheimer's disease patients (10 male and 7 female Caucasions) and 17 healthy subjects of similar age, sex and race were used as samples. The samples were collected under epidural anesthesia with lidocaine (lidocaine hydrochloride (standard dose: 200 mg) was hypodermically administered at the puncture site). Protein components were removed from 150 microliters of each cerebrospinal fluid by using an ultrafiltration filter of 5000 NMWL (Ultrafree-MC BIOMAX-5, UFC3BCC00, produced by Millipore). To the cerebrospinal fluid, 25 microliters of a solution containing L-Valine-^13C5, ^15N or L-Lysine-^13C5, ^15N as an internal standard substance (0.1% formic acid, 50% methanol solvent) and 800 microliters of a 0.15% hydrochloric acid solution were added. This sample solution was applied to a solid phase extraction column, Oasis MCX (10 mg), produced by Waters. Washing was performed with 1 mL of water first, then with 1 mL of 50% methanol solvent containing 0.1% formic acid, subsequently with 1 mL of water, and with 1 mL of methanol. Then, elution was performed with 1 mL of a mixture of 25% aqueous ammonia and methanol (2:3, v/v), the eluate was dried, the residue was dissolved again in 25 microliters of 50% methanol, and insoluble substances were removed by using a PVDF membrane filter having a pore size of 0.22 micrometer to prepare a sample for LC/MS.
# As for the material packed in the LC column, Primesep A resin (particle size: 5 micrometers, pore size: 100 angstroms) of SIELC Technologies (Prospect Heights, Ill.) was packed in a fused silica capillary having an internal diameter of 150 micrometers (internal surface was treated with TC-WAX, produced by GL Sciences, catalog number: 1010-27012) of which tip was tapered to a diameter of about 8 micrometers beforehand with a laser-based puller P-2000 (produced by Sutter) at a height of about 15 cm under a nitrogen gas pressure of about 7 MPa, and this was used as a column. 50% Methanol containing 0.1% formic acid was used as a mobile phase A, and 90% methanol containing 2% trifluoroacetic acid in addition to 0.1% formic acid was used as a mobile phase B. The concentration gradient of the mobile phase B was, from the start of elution, as follows: 0 minute (0%)-5 minutes (0%)-25 minutes (25%)-25.1 minutes (50%)-50 minutes (100%)-60 minutes (100%), and the flow rate was 1 microliter per minute. Since valine as the internal standard substance was eluted in a period of 5 to 25 minutes, and lysine as the internal standard substance was eluted in a period of 25 to 50 minutes, either one of the internal standard substances was appropriately used for quantification of each substance depending on the elution time. Qstar Pulsar i produced by Applied Biosystems was used in the cation detection mode as the mass spectrometer with an applied voltage of 2400 volts at a DP value of 10 and an IP value of 100 for improving the sensitivity to perform the measurement for the scanning range of 50 to 700 amu.
# Further, by the MS/MS measurement, m/z 86.08 and m/z 58.06 were obtained from the former and the latter, respectively, as the product ions. The former was estimated to be that of lidocaine, and the latter was estimated to be that of MEGX, which is a metabolite of lidocaine. Therefore, specimens of these substances were obtained, and measured under the same LC/MS conditions. As a result, the same retention times and mass spectra were obtained, and thus it was confirmed that these peaks were those of lidocaine and MEXG.
"Lidocaine peak ratio to lysine, average (average of 17 AD patients)","Lidocaine peak ratio to lysine, average (average of 17 healthy controls)","concentration detected in cerebrospinal fluid, AD patients versus healthy subjects",Structure (SMILES),Lidocaine peak ratio to lysine (AD patient),Lidocaine peak ratio to lysine (healthy control)
0.2,1.427,AD patient-specific low concentrations,"CCN(CC)CC(=O)Nc1c(C)cccc1C [Lidocaine, lidocaine]",0.842 and 0.040 and 0.059 and 0.035 and 0.396 and 0.030 and 0.000 (2×) and 0.086 and 0.061 and 0.055 and 0.107 and 0.745 and 0.021 and 0.143 and 0.015 and 0.277,1.40 and 0.83 and 2.29 and 1.20 and 1.72 and 2.84 and 1.53 and 0.96 and 0.91 and 1.79 and 1.50 and 0.72 and 1.09 and 1.31 and 0.98 and 0.67 and 2.54
–,–,AD patient-specific low concentrations,"CCNCC(=O)Nc1c(C)cccc1C [MEGX, monoethylglycinexylidide]",–,–
